Measured values reported in patent publication US9555039B2, “Piperidine derivatives and compositions for the inhibition of nicotinamide phosphoribosyltransferase (NAMPT)” (Forma TM, LLC., priority 2011, dated 2017).
Where two headings read alike, the source gives them in different places.

Tests used:
A2780 cells = test: In-vitro cell proliferation assay (SRB, 72 hours); format: cell-based; conditions: Homo sapiens, sulforhodamine B (SRB) assay
Outline: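 Background from media-only plate subtracted; inhibition relative to DMSO-treated cells, value derived by interpolation between two concentrations.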

[1] = biological target: T1, Recombinant His-tagged NAMPT (Homo sapiens, UniProt P43490); test: Biochemical inhibition assay: NAMPT enzymatic reaction, NMN quantified by mass spectrometry; conditions: 33 nM NAMPT, 1 μM NAM, 100 μM PRPP, 30 minutes at room temperature, read-out: Biochem IC50
T1 construct: His; host or cells: E. coli
Outline: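 Reaction 30 min at room temperature with 1 μM NAM, 100 μM PRPP, 2.5 mM ATP (final), quenched with formic acid. NMN quantified by RapidFire electrospray MS, normalized to L-cystathionine; IC50 from percent inhibition versus DMSO.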

T1 sequence (P43490 whole entry): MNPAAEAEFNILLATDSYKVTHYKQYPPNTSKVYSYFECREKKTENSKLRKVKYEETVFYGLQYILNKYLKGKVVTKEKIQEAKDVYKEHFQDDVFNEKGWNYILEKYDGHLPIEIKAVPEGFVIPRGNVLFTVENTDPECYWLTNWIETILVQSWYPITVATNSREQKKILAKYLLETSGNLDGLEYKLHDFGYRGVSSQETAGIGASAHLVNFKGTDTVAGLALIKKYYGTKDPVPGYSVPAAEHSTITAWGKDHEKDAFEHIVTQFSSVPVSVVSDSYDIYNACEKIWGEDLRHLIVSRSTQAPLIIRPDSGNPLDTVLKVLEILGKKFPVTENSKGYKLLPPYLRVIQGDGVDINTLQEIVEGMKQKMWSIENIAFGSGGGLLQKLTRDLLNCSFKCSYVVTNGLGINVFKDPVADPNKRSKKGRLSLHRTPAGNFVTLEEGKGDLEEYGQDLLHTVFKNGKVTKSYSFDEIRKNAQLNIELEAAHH

Row | Compound | IC50 (A2780 cells) [nM] | IC50 ([1]; 2.5 mM ATP) [nM] | IC50 ([1]; […] ATP) [nM]
1 | O=C(NCCCCC1CCN(C(=O)c2ccc(Cl)cc2)CC1)c1cc2ccncc2s1 [N-(4-{1-[(4-chlorophenyl)carbonyl]piperidin-4-yl}butyl)thieno[2,3-c]pyridine-2-carboxamide] | 1000 to 10000 | 22.8 | –
2 | O=C(NCCCCC1CCN(S(=O)(=O)c2ccc(F)cc2)CC1)c1cc2cnccc2[nH]1 [N-(4-{1-[(4-fluorobenzene)sulfonyl]piperidin-4-yl}butyl)-1H-pyrrolo[3,2-c]pyridine-2-carboxamide] | 17.6 | 48.9 | –
3 | O=C(NCCCCC1CCN(C(=O)c2ccc(F)cc2)CC1)c1ccc2nccn2c1 [N-(4-{1-[(4-fluorophenyl)carbonyl]piperidin-4-yl}butyl)imidazo[1,2-a]pyridine-6-carboxamide] | 26.2 | 12 | –
4 | O=C(NCCCCC1CCN(C(=O)c2ccc(F)cc2)CC1)c1cc2ccncc2s1 [N-(4-{1-[(4-fluorophenyl)carbonyl]piperidin-4-yl}butyl)thieno[2,3-c]pyridine-2-carboxamide] | 100 to 1000 | 51.8 | –
5 | COc1ccc(C(=O)N2CCC(CCCCNC(=O)c3cc4cnccc4[nH]3)CC2)cc1 [N-(4-{1-[(4-methoxyphenyl)carbonyl]piperidin-4-yl}butyl)-1H-pyrrolo[3,2-c]pyridine-2-carboxamide] | 16.3 | 79.7 | –
6 | COc1ccc(C(=O)N2CCC(CCCCNC(=O)c3ccc4nccn4c3)CC2)cc1 [N-(4-{1-[(4-methoxyphenyl)carbonyl]piperidin-4-yl}butyl)imidazo[1,2-a]pyridine-6-carboxamide] | 57.6 | 23.2 | –
7 | COc1ccc(C(=O)N2CCC(CCCCNC(=O)c3cc4ccncc4s3)CC2)cc1 [N-(4-{1-[(4-methoxyphenyl)carbonyl]piperidin-4-yl}butyl)thieno[2,3-c]pyridine-2-carboxamide] | 80.3 | 52.2 | –
8 | Cc1ncsc1C(=O)N1CCC(CCCCNC(=O)c2cc3cnccc3[nH]2)CC1 [N-(4-{1-[(4-methyl-1,3-thiazol-5-yl)carbonyl]piperidin-4-yl}butyl)-1H-pyrrolo[3,2-c]pyridine-2-carboxamide] | 1 | – | 5.4
9 | Cc1ncsc1C(=O)N1CCC(CCCCNC(=O)c2ccc3nccn3c2)CC1 [N-(4-{1-[(4-methyl-1,3-thiazol-5-yl)carbonyl]piperidin-4-yl}butyl)imidazo[1,2-a]pyridine-6-carboxamide] | 0.8 | 2.9 | –
10 | Cc1ncsc1C(=O)N1CCC(CCCCNC(=O)c2cc3ccncc3s2)CC1 [N-(4-{1-[(4-methyl-1,3-thiazol-5-yl)carbonyl]piperidin-4-yl}butyl)thieno[2,3-c]pyridine-2-carboxamide] | 0.8 | 5.3 | –
11 | COc1ccc(Cl)cc1C(=O)N1CCC(CCCCNC(=O)c2ccc3nccn3c2)CC1 [N-(4-{1-[(5-chloro-2-methoxyphenyl)carbonyl]piperidin-4-yl}butyl)imidazo[1,2-a]pyridine-6-carboxamide] | 3.1 | 10.5 | –
12 | COc1ccc(Cl)cc1C(=O)N1CCC(CCCCNC(=O)c2cc3ccncc3s2)CC1 [N-(4-{1-[(5-chloro-2-methoxyphenyl)carbonyl]piperidin-4-yl}butyl)thieno[2,3-c]pyridine-2-carboxamide] | 3.3 | 14.1 | –
13 | COc1ncc(Cl)cc1C(=O)N1CCC(CCCCNC(=O)c2cc3cnccc3[nH]2)CC1 [N-(4-{1-[(5-chloro-2-methoxypyridin-3-yl)carbonyl]piperidin-4-yl}butyl)-1H-pyrrolo[3,2-c]pyridine-2-carboxamide] | 3.3 | 30.3 | –
14 | COc1ncc(Cl)cc1C(=O)N1CCC(CCCCNC(=O)c2ccc3nccn3c2)CC1 [N-(4-{1-[(5-chloro-2-methoxypyridin-3-yl)carbonyl]piperidin-4-yl}butyl)imidazo[1,2-a]pyridine-6-carboxamide] | 3.3 | 12.3 | –
15 | COc1ncc(Cl)cc1C(=O)N1CCC(CCCCNC(=O)c2cc3ccncc3s2)CC1 [N-(4-{1-[(5-chloro-2-methoxypyridin-3-yl)carbonyl]piperidin-4-yl}butyl)thieno[2,3-c]pyridine-2-carboxamide] | 7.1 | 17 | –
16 | O=C(NCCCCC1CCN(C(=O)c2cc3cc(F)ccc3[nH]2)CC1)c1cc2cnccc2[nH]1 [N-(4-{1-[(5-fluoro-1H-indol-2-yl)carbonyl]piperidin-4-yl}butyl)-1H-pyrrolo[3,2-c]pyridine-2-carboxamide] | 100 to 1000 | 97.1 | –
17 | O=C(NCCCCC1CCN(C(=O)c2cc3cc(F)ccc3[nH]2)CC1)c1cc2ccncc2s1 [N-(4-{1-[(5-fluoro-1H-indol-2-yl)carbonyl]piperidin-4-yl}butyl)thieno[2,3-c]pyridine-2-carboxamide] | 1000 to 10000 | 30.4 | –
18 | Cc1ccc(F)cc1C(=O)N1CCC(CCCCNC(=O)c2cc3cnccc3[nH]2)CC1 [N-(4-{1-[(5-fluoro-2-methylphenyl)carbonyl]piperidin-4-yl}butyl)-1H-pyrrolo[3,2-c]pyridine-2-carboxamide] | 2.3 | 14.2 | –

Row | Compound | IC50 (A2780 cells) [nM] | IC50 ([1]; 2.5 mM ATP) [nM] | IC50 ([1]; […] ATP) [nM]
19 | Cc1ccc(F)cc1C(=O)N1CCC(CCCCNC(=O)c2ccc3nccn3c2)CC1 [N-(4-{1-[(5-fluoro-2-methylphenyl)carbonyl]piperidin-4-yl}butyl)imidazo[1,2-a]pyridine-6-carboxamide] | 3.9 | 10.9 | –
20 | Cc1ccc(F)cc1C(=O)N1CCC(CCCCNC(=O)c2cc3ccncc3s2)CC1 [N-(4-{1-[(5-fluoro-2-methylphenyl)carbonyl]piperidin-4-yl}butyl)thieno[2,3-c]pyridine-2-carboxamide] | 1.8 | 4.5 | –
21 | O=C(NCCCCC1CCN(C(=O)c2ccc(F)cn2)CC1)c1cc2cnccc2[nH]1 [N-(4-{1-[(5-fluoropyridin-2-yl)carbonyl]piperidin-4-yl}butyl)-1H-pyrrolo[3,2-c]pyridine-2-carboxamide] | 14 | 57.2 | –
22 | O=C(NCCCCC1CCN(C(=O)c2ccc(F)cn2)CC1)c1ccc2nccn2c1 [N-(4-{1-[(5-fluoropyridin-2-yl)carbonyl]piperidin-4-yl}butyl)imidazo[1,2-a]pyridine-6-carboxamide] | 67.9 | 74 | –
23 | O=C(NCCCCC1CCN(C(=O)c2ccc(F)cn2)CC1)c1cc2ccncc2s1 [N-(4-{1-[(5-fluoropyridin-2-yl)carbonyl]piperidin-4-yl}butyl)thieno[2,3-c]pyridine-2-carboxamide] | 100 to 1000 | 26.5 | –
24 | Cc1cnc(C(=O)N2CCC(CCCCNC(=O)c3cc4cnccc4[nH]3)CC2)cn1 [N-(4-{1-[(5-methylpyrazin-2-yl)carbonyl]piperidin-4-yl}butyl)-1H-pyrrolo[3,2-c]pyridine-2-carboxamide] | 23.8 | 115 | –
25 | Cc1cnc(C(=O)N2CCC(CCCCNC(=O)c3ccc4nccn4c3)CC2)cn1 [N-(4-{1-[(5-methylpyrazin-2-yl)carbonyl]piperidin-4-yl}butyl)imidazo[1,2-a]pyridine-6-carboxamide] | 66.7 | 10.9 | –
26 | Cc1cnc(C(=O)N2CCC(CCCCNC(=O)c3cc4ccncc4s3)CC2)cn1 [N-(4-{1-[(5-methylpyrazin-2-yl)carbonyl]piperidin-4-yl}butyl)thieno[2,3-c]pyridine-2-carboxamide] | 100 to 1000 | 68.5 | –
27 | Cc1ccc(C(=O)N2CCC(CCCCNC(=O)c3cc4cnccc4[nH]3)CC2)cn1 [N-(4-{1-[(6-methylpyridin-3-yl)carbonyl]piperidin-4-yl}butyl)-1H-pyrrolo[3,2-c]pyridine-2-carboxamide] | 21.3 | 65.1 | –
28 | Cc1ccc(C(=O)N2CCC(CCCCNC(=O)c3ccc4nccn4c3)CC2)cn1 [N-(4-{1-[(6-methylpyridin-3-yl)carbonyl]piperidin-4-yl}butyl)imidazo[1,2-a]pyridine-6-carboxamide] | 73.6 | 23.8 | –
29 | Cc1ccc(C(=O)N2CCC(CCCCNC(=O)c3cc4ccncc4s3)CC2)cn1 [N-(4-{1-[(6-methylpyridin-3-yl)carbonyl]piperidin-4-yl}butyl)thieno[2,3-c]pyridine-2-carboxamide] | 100 to 1000 | 69.7 | –
30 | Cc1nc(C)c(C(=O)N2CCC(CCCCNC(=O)c3ccc4nccn4c3)CC2)s1 [N-(4-{1-[(dimethyl-1,3-thiazol-5-yl)carbonyl]piperidin-4-yl}butyl)imidazo[1,2-a]pyridine-6-carboxamide] | 6.6 | 24.1 | –
31 | O=C(NCCCCC1CCN(C(=O)c2ccoc2)CC1)c1cc2cnccc2[nH]1 [N-(4-{1-[(furan-3-yl)carbonyl]piperidin-4-yl}butyl)-1H-pyrrolo[3,2-c]pyridine-2-carboxamide] | 10.1 | 9.1 | –
32 | O=C(NCCCCC1CCN(C(=O)c2ccoc2)CC1)c1ccc2nccn2c1 [N-(4-{1-[(furan-3-yl)carbonyl]piperidin-4-yl}butyl)imidazo[1,2-a]pyridine-6-carboxamide] | 25.6 | 6.2 | –
33 | O=C(NCCCCC1CCN(C(=O)c2ccoc2)CC1)c1cc2ccncc2s1 [N-(4-{1-[(furan-3-yl)carbonyl]piperidin-4-yl}butyl)thieno[2,3-c]pyridine-2-carboxamide] | 6 | 4 | –
34 | O=C(NCCCCC1CCN(C(=O)c2ccccn2)CC1)c1cc2cnccc2[nH]1 [N-(4-{1-[(pyridin-2-yl)carbonyl]piperidin-4-yl}butyl)-1H-pyrrolo[3,2-c]pyridine-2-carboxamide] | 6.3 | 30.6 | –
35 | O=C(NCCCCC1CCN(C(=O)c2ccccn2)CC1)c1ccc2nccn2c1 [N-(4-{1-[(pyridin-2-yl)carbonyl]piperidin-4-yl}butyl)imidazo[1,2-a]pyridine-6-carboxamide] | 13.5 | 36.4 | –
